Measurements reported in the supplement of paper PMC10307832.

Key:
Experiment in all cases: relative viability (nuclei count vs DMSO), 5 days (fraction); higher = more cells survive
[1] = compound: CCN(CC)CCNC(=O)c1c(C)[nH]c(/C=C2\C(=O)Nc3ccc(F)cc32)c1C [Sunitinib] + Cc1nc(Nc2ncc(C(=O)Nc3c(C)cccc3Cl)s2)cc(N2CCN(CCO)CC2)n1 [Dasatinib] (partner 0.075 µM)
Procedure, shortened: (§1)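 Relative viability equals treated-well nuclei counts divided by vehicle-well nuclei counts. Counts came from 4× images of lung cancer cell lines grown in 1536-well plates for 5 days after pin-tool dosing on the day after seeding. Dosing used one drug alone or a fixed anchor-drug dose plus five library-drug doses (not always all listed) in √10 steps, and values are medians of duplicate plates.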

[2] = compound: CCN(CC)CCNC(=O)c1c(C)[nH]c(/C=C2\C(=O)Nc3ccc(F)cc32)c1C [Sunitinib] + CCNC(=O)c1noc(-c2cc(C(C)C)c(O)cc2O)c1-c1ccc(CN2CCOCC2)cc1 [Luminespib] (partner 0.01 µM)
Procedure, shortened: as §1

[3] = compound: CCN(CC)CCNC(=O)c1c(C)[nH]c(/C=C2\C(=O)Nc3ccc(F)cc32)c1C [Sunitinib] + CC(C)C[C@H](NC(=O)[C@H](Cc1ccccc1)NC(=O)c1cnccn1)B(O)O [Bortezomib] (partner 0.002 µM)
Procedure, shortened: as §1

[4] = compound: CCN(CC)CCNC(=O)c1c(C)[nH]c(/C=C2\C(=O)Nc3ccc(F)cc32)c1C [Sunitinib] + CC1(C)CCC(c2ccc(Cl)cc2)=C(CN2CCN(c3ccc(C(=O)NS(=O)(=O)c4ccc(N[C@H](CCN5CCOCC5)CSc5ccccc5)c(S(=O)(=O)C(F)(F)F)c4)cc3)CC2)C1 [Navitoclax] (partner 0.5 µM)
Procedure, shortened: as §1

| Cell Line | relative viability ([1]; first compound 0.02 µM) | relative viability ([1]; first compound 0.06325 µM) | relative viability ([1]; first compound 0.2 µM) | relative viability ([1]; first compound 0.6325 µM) | relative viability ([1]; first compound 2 µM) | relative viability ([2]; first compound 0.02 µM) | relative viability ([2]; first compound 0.06325 µM) | relative viability ([2]; first compound 0.2 µM) | relative viability ([2]; first compound 0.6325 µM) | relative viability ([2]; first compound 2 µM) | relative viability ([3]; first compound 0.02 µM) | relative viability ([3]; first compound 0.06325 µM) | relative viability ([3]; first compound 0.2 µM) | relative viability ([3]; first compound 0.6325 µM) | relative viability ([3]; first compound 2 µM) | relative viability ([4]; first compound 0.02 µM) | relative viability ([4]; first compound 0.06325 µM) | relative viability ([4]; first compound 0.2 µM) | relative viability ([4]; first compound 0.6325 µM) | relative viability ([4]; first compound 2 µM) |
| --- | --- | --- | --- | --- | --- | --- | --- | --- | --- | --- | --- | --- | --- | --- | --- | --- | --- | --- | --- | --- |
| NCI-H2126 | 0.601 | 0.67 | 0.636 | 0.719 | 0.638 | 0.875 | 0.918 | 0.897 | 0.985 | 0.866 | 1.07 | 1.19 | 1.16 | 1.15 | 1.13 | 0.833 | 0.865 | 0.904 | 0.871 | 0.798 |
| NCI-H2228 | 0.526 | 0.607 | 0.613 | 0.494 | 0.408 | 0.138 | 0.145 | 0.148 | 0.177 | 0.114 | 1.04 | 1.14 | 1.22 | 1.15 | 1 | 0.87 | 0.792 | 1 | 0.96 | 0.524 |
| NCI-H2347 | 0.255 | 0.292 | 0.302 | 0.257 | 0.394 | 0.486 | 0.355 | 0.377 | 0.238 | 0.558 | 0.853 | 1.21 | 1.1 |  | 1.11 | 0.888 | 0.825 | 0.836 | 0.817 | 0.818 |
| NCI-H2405 | 0.214 | 0.206 | 0.224 | 0.23 | 0.212 | 0.672 | 0.616 | 0.854 | 0.947 | 0.722 | 0.997 | 0.924 | 1.09 | 1.08 | 1 | 0.985 | 0.892 | 0.909 | 1.14 | 0.977 |
| NCI-H3122 | 0.725 | 0.985 | 0.84 | 0.932 | 0.853 | 0.0868 | 0.127 | 0.0866 | 0.0951 | 0.0797 | 1.01 | 1.01 |  | 0.985 | 0.985 | 0.975 | 1.04 | 1.07 | 1.04 | 0.983 |
| PC-3 [JPC-3] | 1.04 | 0.903 | 1.19 | 1.05 | 0.967 | 0.681 | 0.672 | 0.755 | 0.762 | 0.692 | 0.836 | 0.88 | 0.893 | 0.869 | 0.732 | 0.843 | 0.906 | 0.846 | 0.879 | 0.797 |
| PC-14 | 0.291 | 0.232 | 0.269 | 0.385 | 0.261 | 0.18 | 0.121 | 0.201 | 0.144 | 0.216 | 0.946 | 0.858 | 0.99 | 0.878 | 0.726 | 0.987 | 0.999 | 1.1 | 0.996 | 0.958 |
| RERF-LC-KJ | 0.768 | 0.897 | 0.832 | 0.821 | 0.847 | 1.02 | 1.25 | 1.35 | 1.4 | 1.14 | 0.994 |  | 1.26 | 1.03 | 1.09 | 0.844 | 0.899 | 1.13 | 0.876 | 0.977 |
